Measured values from article PMC4162805 (European journal of medicinal chemistry, 2014).
Entries after “also recorded” stand apart in the source; their conditions may differ.

Molecular target: T1, κ-opioid receptor (KOR) (Homo sapiens, UniProt P41145)
Assay: not given
Type: binding
Details: not given

T1 sequence (P41145 whole entry): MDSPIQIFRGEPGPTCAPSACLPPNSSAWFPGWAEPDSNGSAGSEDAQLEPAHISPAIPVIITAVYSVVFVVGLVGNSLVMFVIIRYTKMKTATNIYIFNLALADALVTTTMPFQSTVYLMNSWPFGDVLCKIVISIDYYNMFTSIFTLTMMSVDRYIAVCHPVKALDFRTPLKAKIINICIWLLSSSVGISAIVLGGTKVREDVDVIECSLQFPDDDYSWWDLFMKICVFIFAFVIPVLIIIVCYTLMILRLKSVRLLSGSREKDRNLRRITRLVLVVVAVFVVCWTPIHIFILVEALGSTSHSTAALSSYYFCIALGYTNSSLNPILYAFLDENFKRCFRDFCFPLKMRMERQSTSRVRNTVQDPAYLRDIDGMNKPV

SMILES | Selectivity DOR/KOR | fold reduced KOR affinity compared to 1 [fold] | Selectivity MOR/KOR | fold reduced KOR affinity compared to 4a [fold] | fold increased KOR affinity compared to 4a [fold] | affinity for KOR (in words)
C=CC(=O)O[C@H]1C[C@@H](C(=O)OC)[C@]2(C)CC[C@H]3C(=O)O[C@H](c4ccoc4)C[C@]3(C)[C@H]2C1=O [4a, 2-O-Acryloylsalvinorin B] | >552 | 6 |  |  |  | 
C=C(C)C(=O)O[C@H]1C[C@@H](C(=O)OC)[C@]2(C)CC[C@H]3C(=O)O[C@H](c4ccoc4)C[C@]3(C)[C@H]2C1=O [4b, 2-O-Methacryloylsalvinorin B] |  |  | >293 |  |  | 
COC(=O)[C@@H]1C[C@H](OC(=O)C=C(C)C)C(=O)[C@H]2[C@@]1(C)CC[C@H]1C(=O)O[C@H](c3ccoc3)C[C@]21C [4c, 2-O-(3′,3′-Dimethylacryloyl)salvinorin B] |  |  |  | 21 |  | 
C=C(C)CC(=O)O[C@H]1C[C@@H](C(=O)OC)[C@]2(C)CC[C@H]3C(=O)O[C@H](c4ccoc4)C[C@]3(C)[C@H]2C1=O [4d, 2-O-(3′-Methylbut-3′-enoyl)salvinorin B] | >1666 |  |  |  | 3 | 
C/C=C/C(=O)O[C@H]1C[C@@H](C(=O)OC)[C@]2(C)CC[C@H]3C(=O)O[C@H](c4ccoc4)C[C@]3(C)[C@H]2C1=O [4e, 2-O-Crotonoylsalvinorin B] | >395 |  |  |  |  | 
C/C=C(\C)C(=O)O[C@H]1C[C@@H](C(=O)OC)[C@]2(C)CC[C@H]3C(=O)O[C@H](c4ccoc4)C[C@]3(C)[C@H]2C1=O [4g, 2-O-(2′,3′-Dimethylacryloyl)salvinorin B] | >65 |  | >65 | 8 |  | 
COC(=O)[C@@H]1C[C@H](OC(=O)/C=C/c2ccccc2)C(=O)[C@H]2[C@@]1(C)CC[C@H]1C(=O)O[C@H](c3ccoc3)C[C@]21C [5a, 2-O-Cinnamoylsalvinorin B] |  |  |  |  | 2 | 
COC(=O)[C@@H]1C[C@H](OC(=O)/C=C/c2ccccc2OC)C(=O)[C@H]2[C@@]1(C)CC[C@H]1C(=O)O[C@H](c3ccoc3)C[C@]21C [5b, 2-O-(2″-Methoxycinnamoyl)salvinorin B] | >154 |  | >154 |  |  | 
COC(=O)[C@@H]1C[C@H](OC(=O)/C=C/c2ccc(OC)cc2)C(=O)[C@H]2[C@@]1(C)CC[C@H]1C(=O)O[C@H](c3ccoc3)C[C@]21C [5c, 2-O-(4″-Methoxycinnamoyl)salvinorin B] | >74 |  | >74 |  |  | 
COC(=O)[C@@H]1C[C@H](OC(=O)/C=C/c2cc(OC)ccc2OC)C(=O)[C@H]2[C@@]1(C)CC[C@H]1C(=O)O[C@H](c3ccoc3)C[C@]21C [5d, 2-O-(2″,5″-Dimethoxycinnamoyl)salvinorin B] | >17 |  | >17 |  |  | 
COC(=O)[C@@H]1C[C@H](OC(=O)/C=C/c2ccc(OC)cc2OC)C(=O)[C@H]2[C@@]1(C)CC[C@H]1C(=O)O[C@H](c3ccoc3)C[C@]21C [5e, 2-O-(2″,4″-Dimethoxycinnamoyl)salvinorin B] | >62 |  | >62 |  |  | 
COC(=O)[C@@H]1C[C@H](OC(=O)/C=C/c2cc(OC)c(OC)c(OC)c2)C(=O)[C@H]2[C@@]1(C)CC[C@H]1C(=O)O[C@H](c3ccoc3)C[C@]21C [5f, 2-O-(3″,4″,5″-Trimethoxycinnamoyl)salvinorin B] |  |  |  |  |  | no appreciable affinity; also recorded: no substantial affinity
COC(=O)[C@@H]1C[C@H](OC(=O)/C=C/c2ccc3c(c2)OCO3)C(=O)[C@H]2[C@@]1(C)CC[C@H]1C(=O)O[C@H](c3ccoc3)C[C@]21C [5g, 2-O-(3″,4″-Dioxymethylenecinnamoyl)salvinorin B] | >31 |  |  |  |  | 
COC(=O)[C@@H]1C[C@H](OC(=O)/C=C/c2ccccc2[N+](=O)[O-])C(=O)[C@H]2[C@@]1(C)CC[C@H]1C(=O)O[C@H](c3ccoc3)C[C@]21C [5h, 2-O-(2″-Nitrocinnamoyl)salvinorin B] | >67 |  | >67 |  |  | 
COC(=O)[C@@H]1C[C@H](OC(=O)/C=C/c2ccc([N+](=O)[O-])cc2)C(=O)[C@H]2[C@@]1(C)CC[C@H]1C(=O)O[C@H](c3ccoc3)C[C@]21C [5i, 2-O-(4″-Nitrocinnamoyl)salvinorin B] | >35 |  | >35 |  |  | 
COC(=O)[C@@H]1C[C@H](OC(=O)/C=C/c2ccccc2C(F)(F)F)C(=O)[C@H]2[C@@]1(C)CC[C@H]1C(=O)O[C@H](c3ccoc3)C[C@]21C [5j, 2-O-(2″-Trifluoromethylcinnamoyl)salvinorin B] | >77 |  | >77 |  |  | 
COC(=O)[C@@H]1C[C@H](OC(=O)/C=C/c2cc(C(F)(F)F)ccc2C(F)(F)F)C(=O)[C@H]2[C@@]1(C)CC[C@H]1C(=O)O[C@H](c3ccoc3)C[C@]21C [5l, 2-O-[2″,5″-bis(Trifluoromethyl)cinnamoyl]salvinorin B] | <0.58 |  |  |  |  | no substantial affinity
COC(=O)[C@@H]1C[C@H](OC(=O)/C=C/c2cccnc2)C(=O)[C@H]2[C@@]1(C)CC[C@H]1C(=O)O[C@H](c3ccoc3)C[C@]21C [5m, 2-O-[3′-(3″-Pyridyl)acryloyl]salvinorin B] | <0.48 |  | <0.03 |  |  | no substantial affinity

Molecular target: T1, κ-opioid receptor (KOR)
Assay: not given
Details: previously observed; cited from earlier work

SMILES | wash-resistant irreversible binding at KOR
COC(=O)[C@@H]1C[C@H](OC(=O)CSC#N)C(=O)[C@H]2[C@@]1(C)CC[C@H]1C(=O)O[C@H](c3ccoc3)C[C@]21C [RB-64, 22-thiocyanatosalvinorin A] | wash-resistant irreversible binding

Molecular target: δ-opioid receptor (DOR) (Homo sapiens, UniProt P41143)
Assay: Radioligand binding at DOR against [3H]DADLE
Details: not given

Sequence of δ-opioid receptor (DOR) (P41143 whole entry): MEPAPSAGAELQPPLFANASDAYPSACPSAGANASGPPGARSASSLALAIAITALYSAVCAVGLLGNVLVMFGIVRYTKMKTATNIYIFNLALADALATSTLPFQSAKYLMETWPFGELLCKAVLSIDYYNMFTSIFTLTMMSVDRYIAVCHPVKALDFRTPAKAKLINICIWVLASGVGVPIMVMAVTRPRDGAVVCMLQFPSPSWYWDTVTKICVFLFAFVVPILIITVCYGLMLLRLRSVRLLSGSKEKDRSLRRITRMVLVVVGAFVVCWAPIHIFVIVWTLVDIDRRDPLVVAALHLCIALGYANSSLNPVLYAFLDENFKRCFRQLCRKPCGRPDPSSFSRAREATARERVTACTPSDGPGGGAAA

SMILES | affinity for DOR (in words)
COC(=O)[C@@H]1C[C@H](OC(=O)/C=C/c2cc(OC)c(OC)c(OC)c2)C(=O)[C@H]2[C@@]1(C)CC[C@H]1C(=O)O[C@H](c3ccoc3)C[C@]21C [5f, 2-O-(3″,4″,5″-Trimethoxycinnamoyl)salvinorin B] | no appreciable affinity

Molecular target: hKOR receptor (Homo sapiens, UniProt P41145)
Assay: cell-based
Details: not given

Sequence of hKOR receptor (P41145 whole entry): as the sequence (P41145 whole entry) above

SMILES | fold lower cAMP inhibition level (efficacy) than 1 [×] | IC50 [nM]
C=CC(=O)O[C@H]1C[C@@H](C(=O)OC)[C@]2(C)CC[C@H]3C(=O)O[C@H](c4ccoc4)C[C@]3(C)[C@H]2C1=O [4a, 2-O-Acryloylsalvinorin B] | 380 | 
COC(=O)[C@@H]1C[C@H](OC(=O)/C=C/c2ccccc2)C(=O)[C@H]2[C@@]1(C)CC[C@H]1C(=O)O[C@H](c3ccoc3)C[C@]21C [5a, 2-O-Cinnamoylsalvinorin B] | 20 | 7
